≈ marks a conversion by molar mass, not a printed value. Read-outs that look alike come from different tables or passages of the source.
How the values were obtained:
[1] = Solubility testing in buffer containing media; assay type: physicochemical
Procedure: The solubility of AOL was tested in aqueous HP-β-CD and SBE-β-CD media at various concentrations and pH levels at room temperature. Some initial tests, where the pH of the formulations was adjusted only by addition of HCl or NaOH solutions, did evidence high variation in pH and difficulties to reach the target pH. Therefore, it was decided to prepare samples containing a buffering agent to get a stable pH and to facilitate the preparation of the formulations.
A citrate buffer was used at pH 5.5 and phosphate buffer were used at pH 6.5 and 7.5. The solubility (mg/mL) is the mean of 2 independent replicates.

[2] = Stability versus formulation according to Dollo et al.; assay type: physicochemical; conditions: formulation of the invention vs formulation according to Dollo et al.
Excerpt: Consequently, the formulations wherein anethole trithione and derivatives thereof present an improved solubility and stability are still an unmet need.

solubility ([1]; aqueous SBE-β-CD medium with buffer, pH 5.5, aqueous with cosolvent or surfactant or cyclodextrin, SBE-β-CD 10.0% (w/w), Citrate (100 μM), room temperature, read-out: AOL solubility): 165 µg/mL (≈ 686 µM) | solubility ([1]; aqueous SBE-β-CD medium with buffer, pH 5.5, aqueous with cosolvent or surfactant or cyclodextrin, SBE-β-CD 40.0% (w/w), Citrate (100 μM), room temperature, read-out: AOL solubility): 1140 µg/mL (≈ 4730 µM) | solubility ([1]; aqueous SBE-β-CD medium with buffer, pH 6.5, aqueous with cosolvent or surfactant or cyclodextrin, SBE-β-CD 10.0% (w/w), Phosphate 6.5 (100 μM), room temperature, read-out: AOL solubility): 168 µg/mL (≈ 699 µM) | solubility ([1]; aqueous SBE-β-CD medium with buffer, pH 6.5, aqueous with cosolvent or surfactant or cyclodextrin, SBE-β-CD 40.0% (w/w), Phosphate 6.5 (100 μM), room temperature, read-out: AOL solubility): 1210 µg/mL (≈ 5020 µM) | solubility ([1]; aqueous SBE-β-CD medium with buffer, pH 7.5, aqueous with cosolvent or surfactant or cyclodextrin, SBE-β-CD 40.0% (w/w), Phosphate 7.5 (100 μM), room temperature, read-out: AOL solubility): 1180 µg/mL (≈ 4920 µM) | solubility ([1]; buffered aqueous HP-β-CD medium, pH 5.5, aqueous with cosolvent or surfactant or cyclodextrin, HP-β-CD 10.0% (w/w), Citrate (100 μM), room temperature, read-out: AOL solubility): 79 µg/mL (≈ 329 µM) | solubility ([1]; buffered aqueous HP-β-CD medium, pH 5.5, aqueous with cosolvent or surfactant or cyclodextrin, HP-β-CD 20.0% (w/w), Citrate (100 μM), room temperature, read-out: AOL solubility): 212 µg/mL (≈ 882 µM) | solubility ([1]; buffered aqueous HP-β-CD medium, pH 5.5, aqueous with cosolvent or surfactant or cyclodextrin, HP-β-CD 30.0% (w/w), Citrate (100 μM), room temperature, read-out: AOL solubility): 505 µg/mL (≈ 2100 µM) | solubility ([1]; buffered aqueous HP-β-CD medium, pH 5.5, aqueous with cosolvent or surfactant or cyclodextrin, HP-β-CD 40.0% (w/w), Citrate (100 μM), room temperature, read-out: AOL solubility): 721 µg/mL (≈ 3000 µM) | solubility ([1]; buffered aqueous HP-β-CD medium, pH 6.5, aqueous with cosolvent or surfactant or cyclodextrin, HP-β-CD 10.0% (w/w), Phosphate 6.5 (100 μM), room temperature, read-out: AOL solubility): 111 µg/mL (≈ 462 µM) | solubility ([1]; buffered aqueous HP-β-CD medium, pH 6.5, aqueous with cosolvent or surfactant or cyclodextrin, HP-β-CD 20.0% (w/w), Phosphate 6.5 (100 μM), room temperature, read-out: AOL solubility): 274 µg/mL (≈ 1140 µM) | solubility ([1]; buffered aqueous HP-β-CD medium, pH 6.5, aqueous with cosolvent or surfactant or cyclodextrin, HP-β-CD 30.0% (w/w), Phosphate 6.5 (100 μM), room temperature, read-out: AOL solubility): 480 µg/mL (≈ 2000 µM) | solubility ([1]; buffered aqueous HP-β-CD medium, pH 6.5, aqueous with cosolvent or surfactant or cyclodextrin, HP-β-CD 40.0% (w/w), Phosphate 6.5 (100 μM), room temperature, read-out: AOL solubility): 676 µg/mL (≈ 2810 µM) | solubility ([1]; buffered aqueous HP-β-CD medium, pH 7.5, aqueous with cosolvent or surfactant or cyclodextrin, HP-β-CD 10.0% (w/w), Phosphate 7.5 (100 μM), room temperature, read-out: AOL solubility): 112 µg/mL (≈ 466 µM) | solubility ([1]; buffered aqueous HP-β-CD medium, pH 7.5, aqueous with cosolvent or surfactant or cyclodextrin, HP-β-CD 20.0% (w/w), Phosphate 7.5 (100 μM), room temperature, read-out: AOL solubility): 283 µg/mL (≈ 1180 µM) | solubility ([1]; buffered aqueous HP-β-CD medium, pH 7.5, aqueous with cosolvent or surfactant or cyclodextrin, HP-β-CD 30.0% (w/w), Phosphate 7.5 (100 μM), room temperature, read-out: AOL solubility): 540 µg/mL (≈ 2250 µM) | solubility ([1]; buffered aqueous HP-β-CD medium, pH 7.5, aqueous with cosolvent or surfactant or cyclodextrin, HP-β-CD 40.0% (w/w), Phosphate 7.5 (100 μM), room temperature, read-out: AOL solubility): 723 µg/mL (≈ 3010 µM) | solubility ([1]; buffered aqueous SBE-β-CD medium, pH 5.5, aqueous with cosolvent or surfactant or cyclodextrin, SBE-β-CD 20.0% (w/w), Citrate (100 μM), room temperature, read-out: AOL solubility): 369 µg/mL (≈ 1540 µM) | solubility ([1]; buffered aqueous SBE-β-CD medium, pH 5.5, aqueous with cosolvent or surfactant or cyclodextrin, SBE-β-CD 30.0% (w/w), Citrate (100 μM), room temperature, read-out: AOL solubility): 675 µg/mL (≈ 2810 µM) | solubility ([1]; buffered aqueous SBE-β-CD medium, pH 6.5, aqueous with cosolvent or surfactant or cyclodextrin, SBE-β-CD 20.0% (w/w), Phosphate 6.5 (100 μM), room temperature, read-out: AOL solubility): 382 µg/mL (≈ 1590 µM) | solubility ([1]; buffered aqueous SBE-β-CD medium, pH 6.5, aqueous with cosolvent or surfactant or cyclodextrin, SBE-β-CD 30.0% (w/w), Phosphate 6.5 (100 μM), room temperature, read-out: AOL solubility): 676 µg/mL (≈ 2810 µM) | solubility ([1]; buffered aqueous SBE-β-CD medium, pH 7.5, aqueous with cosolvent or surfactant or cyclodextrin, SBE-β-CD 10.0% (w/w), Phosphate 7.5 (100 μM), room temperature, read-out: AOL solubility): 170 µg/mL (≈ 707 µM) | solubility ([1]; buffered aqueous SBE-β-CD medium, pH 7.5, aqueous with cosolvent or surfactant or cyclodextrin, SBE-β-CD 20.0% (w/w), Phosphate 7.5 (100 μM), room temperature, read-out: AOL solubility): 375 µg/mL (≈ 1560 µM) | solubility ([1]; buffered aqueous SBE-β-CD medium, pH 7.5, aqueous with cosolvent or surfactant or cyclodextrin, SBE-β-CD 30.0% (w/w), Phosphate 7.5 (100 μM), room temperature, read-out: AOL solubility): 685 µg/mL (≈ 2850 µM) | solubility ([1]; buffered aqueous cyclodextrin solution, pH 6.5, aqueous with cosolvent or surfactant or cyclodextrin, 40% SBE-β-cyclodextrin, pH 6.5 phosphate buffer, read-out: highest solubility value): 1210 µg/mL (≈ 5020 µM) | solubility ([1]; buffered aqueous cyclodextrin solution, pH 7.5, aqueous with cosolvent or surfactant or cyclodextrin, 40% HP-β-cyclodextrin, pH 7.5 phosphate buffer, read-out: highest solubility value): 723 µg/mL (≈ 3010 µM) | stability of the active compound [2]: significantly more stable
Compound: COc1ccc(-c2cc(=S)ss2)cc1 [AOL, 5-(4-methoxyphenyl)-3H-1,2-dithiole-3-thione]

Source: patent US20210308173A1, “PHARMACEUTICAL COMPOSITION COMPRISING CYCLODEXTRIN COMPLEXES OF ANETHOLE TRITHIONE OR DERIVATIVES THEREOF” (priority 2018, published 2021)
